pIC50: −log10 of the molar value.
Columns and labels:
CBP = target: T1, CBP (Homo sapiens, UniProt Q92793); experiment: CBP degradation in 22Rv1 cells (5 h); format: cell-based; settings: 22Rv1 cells, 5 h; for Dmax: 22Rv1, 5 h, read-out: CBP Degradation (22Rv1, 5 h) DCmax
T1 construct: endogenous in cells; host or cells: 22Rv1 (ATCC CRL-2505) human prostate cancer cells
Description: (§1) Biological Assays. […] Cells with 3-8 passages after purchase were used in experiments.

P300 = target: T2, P300 (Homo sapiens, UniProt Q09472); experiment: P300 degradation in 22Rv1 cells (5 h); format: cell-based; settings: 22Rv1 cells, 5 h; for Dmax: read-out: P300 Degradation (22Rv1, 5 h) DCmax
T2 construct: endogenous in cells; host or cells: 22Rv1 (ATCC CRL-2505) human prostate cancer cells
T2 sequence (Q09472 whole entry): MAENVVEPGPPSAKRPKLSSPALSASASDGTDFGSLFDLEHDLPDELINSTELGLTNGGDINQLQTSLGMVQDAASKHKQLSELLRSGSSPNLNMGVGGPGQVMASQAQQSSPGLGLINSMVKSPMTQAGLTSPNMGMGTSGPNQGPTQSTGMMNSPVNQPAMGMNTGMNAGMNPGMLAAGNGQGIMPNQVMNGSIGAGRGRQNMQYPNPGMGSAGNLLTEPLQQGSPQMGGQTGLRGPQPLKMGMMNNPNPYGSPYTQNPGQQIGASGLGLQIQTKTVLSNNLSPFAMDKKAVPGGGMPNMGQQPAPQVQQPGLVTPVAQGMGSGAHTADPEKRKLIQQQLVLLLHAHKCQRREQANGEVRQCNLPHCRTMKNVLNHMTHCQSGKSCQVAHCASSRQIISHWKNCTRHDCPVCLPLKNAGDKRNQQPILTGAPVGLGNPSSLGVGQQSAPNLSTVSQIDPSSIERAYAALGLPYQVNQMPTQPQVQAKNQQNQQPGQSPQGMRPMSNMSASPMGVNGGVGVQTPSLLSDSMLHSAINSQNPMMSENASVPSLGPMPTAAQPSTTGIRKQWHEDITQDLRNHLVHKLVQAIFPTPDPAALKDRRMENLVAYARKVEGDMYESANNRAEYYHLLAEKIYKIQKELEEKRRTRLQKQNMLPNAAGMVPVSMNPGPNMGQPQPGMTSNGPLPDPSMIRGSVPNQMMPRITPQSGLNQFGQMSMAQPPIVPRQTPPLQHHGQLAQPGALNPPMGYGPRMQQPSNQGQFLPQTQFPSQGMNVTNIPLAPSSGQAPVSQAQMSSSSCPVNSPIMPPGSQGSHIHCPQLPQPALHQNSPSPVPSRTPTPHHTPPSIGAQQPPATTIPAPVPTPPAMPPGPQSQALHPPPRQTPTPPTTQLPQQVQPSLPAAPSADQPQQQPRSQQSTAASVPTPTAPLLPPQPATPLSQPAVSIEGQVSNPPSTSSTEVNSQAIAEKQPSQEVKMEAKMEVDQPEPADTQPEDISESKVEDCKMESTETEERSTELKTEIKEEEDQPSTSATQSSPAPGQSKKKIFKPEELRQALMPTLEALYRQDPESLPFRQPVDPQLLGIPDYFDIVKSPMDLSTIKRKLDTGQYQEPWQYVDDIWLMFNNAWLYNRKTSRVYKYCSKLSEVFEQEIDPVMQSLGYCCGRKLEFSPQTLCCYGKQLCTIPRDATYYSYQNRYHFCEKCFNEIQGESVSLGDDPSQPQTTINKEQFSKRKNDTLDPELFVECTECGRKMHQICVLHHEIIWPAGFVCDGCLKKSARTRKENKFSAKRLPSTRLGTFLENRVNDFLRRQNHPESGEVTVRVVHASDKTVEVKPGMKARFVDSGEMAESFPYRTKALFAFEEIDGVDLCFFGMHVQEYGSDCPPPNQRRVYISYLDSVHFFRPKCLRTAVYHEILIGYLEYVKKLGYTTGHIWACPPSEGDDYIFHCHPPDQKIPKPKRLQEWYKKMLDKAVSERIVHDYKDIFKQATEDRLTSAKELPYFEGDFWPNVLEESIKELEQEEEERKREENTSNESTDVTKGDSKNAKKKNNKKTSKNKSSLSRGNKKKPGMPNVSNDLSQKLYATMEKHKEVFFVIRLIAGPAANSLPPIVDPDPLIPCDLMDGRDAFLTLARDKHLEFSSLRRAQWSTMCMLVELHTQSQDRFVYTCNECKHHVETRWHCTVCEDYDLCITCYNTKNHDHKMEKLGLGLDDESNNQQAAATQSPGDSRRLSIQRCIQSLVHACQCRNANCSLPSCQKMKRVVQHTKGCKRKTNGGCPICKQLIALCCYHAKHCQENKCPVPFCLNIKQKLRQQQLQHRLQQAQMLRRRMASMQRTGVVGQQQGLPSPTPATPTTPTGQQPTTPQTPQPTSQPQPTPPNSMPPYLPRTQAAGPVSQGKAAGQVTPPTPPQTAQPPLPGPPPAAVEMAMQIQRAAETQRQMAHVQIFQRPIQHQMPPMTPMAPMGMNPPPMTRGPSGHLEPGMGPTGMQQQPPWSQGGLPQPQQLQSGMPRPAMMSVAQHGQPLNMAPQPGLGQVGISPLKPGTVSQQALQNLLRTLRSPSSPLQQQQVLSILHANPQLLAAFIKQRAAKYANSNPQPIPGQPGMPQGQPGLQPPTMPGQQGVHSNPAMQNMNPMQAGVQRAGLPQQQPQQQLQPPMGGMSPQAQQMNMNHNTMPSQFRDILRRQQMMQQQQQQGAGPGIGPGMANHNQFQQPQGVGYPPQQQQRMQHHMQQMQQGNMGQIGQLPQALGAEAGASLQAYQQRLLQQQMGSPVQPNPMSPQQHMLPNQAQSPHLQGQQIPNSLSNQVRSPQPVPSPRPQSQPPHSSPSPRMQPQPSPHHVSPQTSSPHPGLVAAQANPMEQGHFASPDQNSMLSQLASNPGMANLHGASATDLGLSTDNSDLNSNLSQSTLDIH
Description: as §1

22Rv1 cells = experiment: Cell growth inhibition assay (CellTiter-Glo) in 22Rv1; format: cell-based, human; settings: Homo sapiens, 22Rv1, 96 h, 22Rv1 cells, 96 h incubation; read-out: Cell Growth Inhibition (IC50) 22Rv1
How it was run: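 22Rv1 prostate cancer cells (passages 3-8, DMEM with 10% FBS) were seeded at 4000 cells/well with compound, 3-fold dilutions from 10 μM final. After 96 h at 37° C and 5% CO2, growth was read by CellTiter-Glo 2.0 luminescence.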

HL60 = experiment: Cell growth inhibition in HL60; format: cell-based; settings: Homo sapiens, HL-60, HL60 cells; read-out: Cell Growth Inhibition (IC50) HL60

T1 sequence (Q92793 whole entry): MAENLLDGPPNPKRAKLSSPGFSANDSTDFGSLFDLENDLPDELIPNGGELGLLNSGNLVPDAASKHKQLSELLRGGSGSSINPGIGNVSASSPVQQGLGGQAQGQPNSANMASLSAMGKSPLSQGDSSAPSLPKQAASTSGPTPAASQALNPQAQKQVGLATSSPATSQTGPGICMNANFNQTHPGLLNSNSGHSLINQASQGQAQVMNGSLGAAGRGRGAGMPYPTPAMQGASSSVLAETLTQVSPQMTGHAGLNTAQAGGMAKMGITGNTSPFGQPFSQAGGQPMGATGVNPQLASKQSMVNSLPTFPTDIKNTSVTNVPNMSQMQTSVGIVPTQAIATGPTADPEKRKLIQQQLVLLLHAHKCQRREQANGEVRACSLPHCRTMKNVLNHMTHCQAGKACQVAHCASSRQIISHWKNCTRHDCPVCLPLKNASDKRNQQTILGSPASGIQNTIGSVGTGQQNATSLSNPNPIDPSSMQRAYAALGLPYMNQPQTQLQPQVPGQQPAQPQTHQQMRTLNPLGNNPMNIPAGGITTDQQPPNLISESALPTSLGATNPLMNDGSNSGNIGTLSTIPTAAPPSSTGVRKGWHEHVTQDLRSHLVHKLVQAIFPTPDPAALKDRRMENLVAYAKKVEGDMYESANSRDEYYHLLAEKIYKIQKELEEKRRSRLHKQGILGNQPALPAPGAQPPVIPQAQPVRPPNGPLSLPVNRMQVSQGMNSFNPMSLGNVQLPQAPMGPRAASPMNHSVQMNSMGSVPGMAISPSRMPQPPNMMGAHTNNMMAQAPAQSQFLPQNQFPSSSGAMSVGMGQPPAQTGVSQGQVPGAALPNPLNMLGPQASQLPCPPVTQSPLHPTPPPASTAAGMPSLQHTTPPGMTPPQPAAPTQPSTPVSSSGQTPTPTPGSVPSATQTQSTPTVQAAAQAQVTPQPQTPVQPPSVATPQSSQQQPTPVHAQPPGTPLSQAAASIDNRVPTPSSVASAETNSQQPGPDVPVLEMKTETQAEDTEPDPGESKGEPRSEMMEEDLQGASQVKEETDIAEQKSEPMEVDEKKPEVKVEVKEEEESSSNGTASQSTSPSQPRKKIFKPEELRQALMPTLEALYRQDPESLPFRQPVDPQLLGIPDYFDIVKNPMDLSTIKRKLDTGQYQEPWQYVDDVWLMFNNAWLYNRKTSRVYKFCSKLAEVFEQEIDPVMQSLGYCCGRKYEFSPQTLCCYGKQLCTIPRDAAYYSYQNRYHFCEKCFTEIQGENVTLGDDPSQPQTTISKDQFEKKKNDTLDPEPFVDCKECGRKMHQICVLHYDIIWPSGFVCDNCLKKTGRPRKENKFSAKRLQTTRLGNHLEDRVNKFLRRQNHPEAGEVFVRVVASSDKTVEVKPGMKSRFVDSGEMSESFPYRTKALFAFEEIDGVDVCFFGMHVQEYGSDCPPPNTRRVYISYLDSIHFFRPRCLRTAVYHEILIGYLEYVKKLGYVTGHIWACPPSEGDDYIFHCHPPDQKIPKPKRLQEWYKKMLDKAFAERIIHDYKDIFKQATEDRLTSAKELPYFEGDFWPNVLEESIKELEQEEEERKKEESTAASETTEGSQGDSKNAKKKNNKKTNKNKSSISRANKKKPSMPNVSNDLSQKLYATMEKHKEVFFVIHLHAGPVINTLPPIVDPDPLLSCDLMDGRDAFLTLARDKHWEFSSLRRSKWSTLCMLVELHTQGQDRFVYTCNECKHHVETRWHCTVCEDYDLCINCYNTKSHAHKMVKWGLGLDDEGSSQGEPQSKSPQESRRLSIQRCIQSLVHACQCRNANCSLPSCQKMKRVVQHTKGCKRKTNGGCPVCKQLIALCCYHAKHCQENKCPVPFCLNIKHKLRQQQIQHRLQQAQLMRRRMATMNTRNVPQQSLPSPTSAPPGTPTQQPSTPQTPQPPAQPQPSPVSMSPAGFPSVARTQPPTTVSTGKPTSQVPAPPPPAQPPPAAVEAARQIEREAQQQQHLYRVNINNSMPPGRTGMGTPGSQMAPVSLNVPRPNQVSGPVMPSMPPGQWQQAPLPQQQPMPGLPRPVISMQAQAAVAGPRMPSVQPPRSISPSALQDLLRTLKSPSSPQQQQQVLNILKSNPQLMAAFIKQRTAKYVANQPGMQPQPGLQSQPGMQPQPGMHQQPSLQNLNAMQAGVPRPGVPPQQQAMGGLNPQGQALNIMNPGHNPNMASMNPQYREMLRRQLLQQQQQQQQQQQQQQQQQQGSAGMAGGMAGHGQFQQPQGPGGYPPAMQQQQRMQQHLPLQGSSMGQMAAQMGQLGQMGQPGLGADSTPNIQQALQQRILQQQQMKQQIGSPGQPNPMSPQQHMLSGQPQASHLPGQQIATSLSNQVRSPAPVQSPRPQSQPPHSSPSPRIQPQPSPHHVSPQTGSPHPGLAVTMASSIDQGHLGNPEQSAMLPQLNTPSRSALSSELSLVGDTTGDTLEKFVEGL

| Dmax (CBP) [%] | DC50 (CBP) [nM] | DC50 (P300) [nM] | Dmax (P300) [%] | pIC50 (22Rv1 cells) | pIC50 (HL60) | Structure (SMILES) |
| --- | --- | --- | --- | --- | --- | --- |
| > 90 | < 10 | < 10 | > 90 | > 7.00 | > 7.00 | CC(=O)N1CCc2c(c(N3CCCc4cc(-c5cnn(C)c5)c(C(F)F)cc43)nn2[C@H]2CC[C@@H](CN3CCc4cc5c(cc4C3)C(=O)N(C3CCC(=O)NC3=O)C5=O)CC2)C1 (relative stereo) [CP-050, 6-((4-(5-acetyl-3-(7-(difluoromethyl)-6-(1-methyl-1H-pyrazol-4-yl)-3,4-dihydroquinolin-1(2H)-yl)-4,5,6,7-tetrahydro-1H-pyrazolo[4,3-c]pyridin-1-yl)cyclohexyl)methyl)-2-(2,6-dioxopiperidin-3-yl)-5,6,7,8-tetrahydro-1H-pyrrolo[3,4-g]isoquinoline-1,3(2H)-dione] |
| > 70 | < 10 |  |  | > 6.00 | > 7.00 | CC(=O)N1CCc2c(c(N3CCCc4cc(-c5cnn(CCCCN6CCc7cc8c(cc7C6)C(=O)N(C6CCC(=O)NC6=O)C8=O)c5)c(C(F)F)cc43)nn2C2CCOCC2)C1 (centres unmarked) [CP-070, 6-(4-(4-(1-(5-acetyl-1-(tetrahydro-2H-pyran-4-yl)-4,5,6,7-tetrahydro-1H-pyrazolo[4,3-c]pyridin-3-yl)-7-(difluoromethyl)-1,2,3,4-tetrahydroquinolin-6-yl)-1H-pyrazol-1-yl)butyl)-2-(2,6-dioxopiperidin-3-yl)-5,6,7,8-tetrahydro-1H-pyrrolo[3,4-g]isoquinoline-1,3(2H)-dione] |
| > 90 | < 10 |  |  | > 6.00 | > 7.00 | CC(=O)N1CCc2c(c(N3CCCc4cc(-c5cnn(C6CCN(C(=O)CN7CCc8cc9c(cc8C7)C(=O)N(C7CCC(=O)NC7=O)C9=O)CC6)c5)c(C(F)F)cc43)nn2C2CCOCC2)C1 (centres unmarked) [CP-071, 6-(2-(4-(4-(1-(5-acetyl-1-(tetrahydro-2H-pyran-4-yl)-4,5,6,7-tetrahydro-1H-pyrazolo[4,3-c]pyridin-3-yl)-7-(difluoromethyl)-1,2,3,4-tetrahydroquinolin-6-yl)-1H-pyrazol-1-yl)piperidin-1-yl)-2-oxoethyl)-2-(2,6-dioxopiperidin-3-yl)-5,6,7,8-tetrahydro-1H-pyrrolo[3,4-g]isoquinoline-1,3(2H)-dione] |
| > 90 | < 10 |  |  | > 7.00 | > 7.00 | CC(=O)N1CCc2c(c(N3CCCc4cc(-c5cnn(C6CCN(C(=O)CN7Cc8cc9c(cc8C7)C(=O)N(C7CCC(=O)NC7=O)C9=O)CC6)c5)c(C(F)F)cc43)nn2C2CCOCC2)C1 (centres unmarked) [CP-072, 6-(2-(4-(4-(1-(5-acetyl-1-(tetrahydro-2H-pyran-4-yl)-4,5,6,7-tetrahydro-1H-pyrazolo[4,3-c]pyridin-3-yl)-7-(difluoromethyl)-1,2,3,4-tetrahydroquinolin-6-yl)-1H-pyrazol-1-yl)piperidin-1-yl)-2-oxoethyl)-2-(2,6-dioxopiperidin-3-yl)-6,7-dihydropyrrolo[3,4-f]isoindole-1,3(2H,5H)-dione] |
| > 70 | < 10 |  |  | > 5.00 | > 7.00 | CC(=O)N1CCc2c(c(N3CCCc4cc(-c5cnn(CCCN6Cc7cc8c(cc7C6)C(=O)N(C6CCC(=O)NC6=O)C8=O)c5)c(C(F)F)cc43)nn2C2CCOCC2)C1 (centres unmarked) [CP-073, 6-(3-(4-(1-(5-acetyl-1-(tetrahydro-2H-pyran-4-yl)-4,5,6,7-tetrahydro-1H-pyrazolo[4,3-c]pyridin-3-yl)-7-(difluoromethyl)-1,2,3,4-tetrahydroquinolin-6-yl)-1H-pyrazol-1-yl)propyl)-2-(2,6-dioxopiepridin-3-yl)-6,7-dihydropyrrolo[3,4-f]isoindole-1,3(2H,5H)-dione] |
| < 50 | > 1000 |  |  | > 5.00 | > 7.00 | CC(=O)N1CCc2c(c(N3CCCc4cc(-c5cnn(CCCN6CCc7cc8c(cc7C6)C(=O)N(C6CCC(=O)NC6=O)C8=O)c5)c(C(F)F)cc43)nn2C2CCOCC2)C1 (centres unmarked) [CP-074, 6-(3-(4-(1-(5-acetyl-1-(tetrahydro-2H-pyran-4-yl)-4,5,6,7-tetrahydro-1H-pyrazolo[4,3-c]pyridin-3-yl)-7-(difluoromethyl)-1,2,3,4-tetrahydroquinolin-6-y)-1H-pyrazol-1-yl)propyl)-2-(2,6-dioxopiperidin-3-yl)-5,6,7,8-tetrahydro-1H-pyrrolo[3,4-g]isoquinoline-1,3(2H)-dione] |

More lines, now with the values behind:

| Structure (SMILES) | Dmax (CBP) [%] | DC50 (CBP) [nM] | DC50 (P300) [nM] | Dmax (P300) [%] | pIC50 (22Rv1 cells) | pIC50 (HL60) |
| --- | --- | --- | --- | --- | --- | --- |
| Cn1cc(-c2cc3c(cc2C(F)F)N(c2nn(C4CCN(C(=O)CN5Cc6cc7c(cc6C5)C(=O)N(C5CCC(=O)NC5=O)C7=O)CC4)c4c2CN(CC(F)(F)F)CC4)CCC3)cn1 (centres unmarked) | < 50 | < 1000 | > 1000 | < 50 | < 5.00 | > 5.00 |
| CC(=O)N1CCc2c(c(N3CCCc4cc(C)c(C(F)F)cc43)nn2C2CCN(C(=O)CN3Cc4cc5c(cc4C3)C(=O)N(C3CCC(=O)NC3=O)C5=O)CC2)C1 (centres unmarked) [CP-011, 6-(2-(4-(5-acetyl-3-(7-(difluoromethyl)-6-methyl-3,4-dihydroquinolin-1(2H)-yl)-4,5,6,7-tetrahydro-1H-pyrazolo[4,3-c]pyridin-1-yl)piperidin-1-yl)-2-oxoethyl)-2-(2,6-dioxopiperidin-3-yl)-6,7-dihydropyrrolo[3,4-f]isoindole-1,3(2H,5H)-dione] | > 90 | < 10 | < 10 | > 70 | > 6.00 | > 6.00 |
| CCc1cc2c(cc1C(F)F)N(c1nn(C3CCN(C(=O)CN4Cc5cc6c(cc5C4)C(=O)N(C4CCC(=O)NC4=O)C6=O)CC3)c3c1CN(C(C)=O)CC3)CCC2 (centres unmarked) [CP-012, 6-(2-(4-(5-acetyl-3-(7-(difluoromethyl)-6-ethyl-3,4-dihydroquinolin-1(2H)-yl)-4,5,6,7-tetrahydro-1H-pyrazolo[4,3-c]pyridin-1-yl)piperidin-1-yl)-2-oxoethyl)-2-(2,6-dioxopiperidin-3-yl)-6,7-dihydropyrrolo[3,4-f]isoindole-1,3(2H,5H)-dione] | > 90 | < 10 | < 10 | > 70 | > 6.00 | > 7.00 |
| CC(=O)N1CCc2c(c(N3CCCc4cc(C5CC5)c(C(F)F)cc43)nn2C2CCN(C(=O)CN3Cc4cc5c(cc4C3)C(=O)N(C3CCC(=O)NC3=O)C5=O)CC2)C1 (centres unmarked) [CP-013, 6-(2-(4-(5-acetyl-3-(6-cyclopropyl-7-(difluoromethyl)-3,4-dihydroquinolin-1(2H)-yl)-4,5,6,7-tetrahydro-1H-pyrazolo[4,3-c]pyridin-1-yl)piperidin-1-yl)-2-oxoethyl)-2-(2,6-dioxopiperidin-3-yl)-6,7-dihydropyrrolo[3,4-f]isoindole-1,3(2H,5H)-dione] | > 90 | < 10 | < 10 | > 90 | > 6.00 | > 6.00 |
| CC(=O)N1CCc2c(c(N3CCCc4cc(C5CC5)c(C(F)F)cc43)nn2C2CCN(C(=O)CN3CCc4cc5c(cc4C3)C(=O)N(C3CCC(=O)NC3=O)C5=O)CC2)C1 (centres unmarked) [CP-014, 6-(2-(4-(5-acetyl-3-(6-cyclopropyl-7-(difluoromethyl)-3,4-dihydroquinolin-1(2H)-yl)-4,5,6,7-tetrahydro-1H-pyrazolo[4,3-c]pyridin-1-yl)piperidin-1-yl)-2-oxoethyl)-2-(2,6-dioxopiperidin-3-yl)-5,6,7,8-tetrahydro-1H-pyrrolo[3,4-g]isoquinoline-1,3(2H)-dione] | > 90 | < 10 | < 10 | > 70 | > 6.00 | > 6.00 |
| CC(=O)N1CCc2c(c(N3CCCc4cc(C(C)C)c(C(F)F)cc43)nn2C2CCN(C(=O)CN3Cc4cc5c(cc4C3)C(=O)N(C3CCC(=O)NC3=O)C5=O)CC2)C1 (centres unmarked) [CP-015, 6-(2-(4-(5-acetyl-3-(7-(difluoromethyl)-6-isopropyl-3,4-dihydroquinolin-1(2H)-yl)-4,5,6,7-tetrahydro-1H-pyrazolo[4,3-c]pyridin-1-yl)piperidin-1-yl)-2-oxoethyl)-2-(2,6-dioxopiperidin-3-yl)-6,7-dihydropyrrolo[3,4-f]isoindole-1,3(2H,5H)-dione] | > 90 | < 10 | < 10 | > 70 | > 6.00 | > 7.00 |
| CC(=O)N1CCc2c(c(N3CCCc4cc(Br)c(C(F)F)cc43)nn2C2CCN(C(=O)CN3Cc4cc5c(cc4C3)C(=O)N(C3CCC(=O)NC3=O)C5=O)CC2)C1 (centres unmarked) [CP-016, 6-(2-(4-(5-acetyl-3-(6-bromo-7-(difluoromethyl)-3,4-dihydroquinolin-1(2H)-yl)-4,5,6,7-tetrahydro-1H-pyrazolo[4,3-c]pyridin-1-yl)piperidin-1-yl)-2-oxoethyl)-2-(2,6-dioxopiperidin-3-yl)-6,7-dihydropyrrolo[3,4-f]isoindole-1,3(2H,5H)-dione] | < 50 | > 1000 | > 1000 | < 50 | > 6.00 | > 7.00 |
| CC(=O)N1CCc2c(c(N3CCCc4cc(Cl)c(C(F)F)cc43)nn2C2CCN(C(=O)CN3Cc4cc5c(cc4C3)C(=O)N(C3CCC(=O)NC3=O)C5=O)CC2)C1 (centres unmarked) [CP-017, 6-(2-(4-(5-acetyl-3-(6-chloro-7-(difluoromethyl)-3,4-dihydroquinolin-1(2H)-yl)-4,5,6,7-tetrahydro-1H-pyrazolo[4,3-c]pyridin-1-yl)piperidin-1-yl)-2-oxoethyl)-2-(2,6-dioxopiperidin-3-yl)-6,7-dihydropyrrolo[3,4-f]isoindole-1,3(2H,5H)-dione] | < 50 | > 1000 | > 1000 | < 50 | < 5.00 | < 5.00 |

Source: patent publication US20240150360A1 (THE REGENTS OF THE UNIVERSITY OF MICHIGAN, priority 2021, published 2024)
